Data reported in BindingDB's records for doi:10.1021/jm00015a003 (Warner-Lambert, 1995).
Square brackets hold non-standard residues; d marks the D form. Peptide text beside a SMILES is read from it. dDip = N[C@@H](C(=O)O)C(c1ccccc1)c1ccccc1

Test: Inhibition of ET-1 stimulated arachidonic acid release in rabbit renal vascular smooth muscle cells

IC50 [µM]	Compound
> 10	CC[C@H](C)[C@H](NC(=O)[C@H](CCCCN)NC(=O)[C@H](CC(=O)O)NC(=O)[C@H](CC(C)C)NC(=O)[C@H](NC(C)=O)C(c1ccccc1)c1ccccc1)C(=O)N[C@@H](Cc1c[nH]c2ccccc12)C(=O)O [(S)-3-[(S)-2-((S)-2-Acetylamino-3,3-diphenyl-propionylamino)-4-methyl-pentanoylamino]-N-((S)-5-amino-1-{(1S,2S)-1-[(S)-1-carboxy-2-(1H-indol-3-yl)-ethylcarbamoyl]-2-methyl-butylcarbamoyl}-pentyl)-succinamic acid]
6	CC[C@H](C)[C@H](NC(=O)[C@H](CC(=O)O)NC(=O)[C@H](CC(C)C)NC(=O)[C@H](NC(C)=O)C(c1ccccc1)c1ccccc1)C(=O)N[C@H](C(=O)N[C@@H](Cc1c[nH]c2ccccc12)C(N)=O)[C@@H](C)CC [(S)-3-[(S)-2-((S)-2-Acetylamino-3,3-diphenyl-propionylamino)-4-methyl-pentanoylamino]-N-((1S,2S)-1-{(1S,2S)-1-[(S)-1-carbamoyl-2-(1H-indol-3-yl)-ethylcarbamoyl]-2-methyl-butylcarbamoyl}-2-methyl-butyl)-succinamic acid] (Ac-[dDip]LDIIW-NH2)
